Laboratory results from ChEMBL document CHEMBL3872207, “Aromatic heterocyclic esters of podophyllotoxin exert anti-MDR activity in human leukemia K562/ADR cells via ROS/MAPK signaling pathways” (Eur J Med Chem, 2016).
Activity calls are given as the source filed them. The calls are words filed in the database; no cut-off is given here.

Experiments:
[1] = target: T1, c-Jun N-terminal kinase, JNK (Homo sapiens) (UniProt P45983+P53779+P45984); assay: Induction of JNK phosphorylation in human K562/ADR cells assessed as ratio of phosphorylated JNK to beta-actin level at 0.1 uM measured after 48 hrs by Western blotting (reference value: 0.46); type: cell-based
[2] = target: T1, c-Jun N-terminal kinase, JNK (Homo sapiens); assay: Induction of JNK phosphorylation in human K562/ADR cells assessed as ratio of phosphorylated JNK to beta-actin level at 0.1 uM pretreated with MAPK inhibitor SB203580 for 1 hr followed by compound addition after 48 hrs by Western blotting method (reference value: 0.46); type: cell-based
[3] = Downregulation of CDK2 expression in human K562/ADR cells assessed as ratio of CDK2 to beta-actin level at 0.1 uM measured after 48 hrs by Western blot analysis (reference value: 0.65); type: functional, cell-based
K562/Adr [4] = assay: Induction of apoptosis in human K562/ADR cells assessed as viable cells at 0.1 uM pretreated with MAPK inhibitor U0126 for 1 hr followed by compound addition after 48 hrs by Annexin V-APC/7-AAD staining based flow cytometry (reference value: 95.31%); type: functional; settings: read-out: Activity
K562/Adr [5] = assay: Induction of ROS generation in human K562/ADR cells at 0.1 uM measured after 24 hrs by DCFH-DA probe based inverted fluorescence microscopy; type: functional, cell-based
[6] = Downregulation of CyclinB1 expression in human K562/ADR cells assessed as ratio of CyclinB1 to beta-actin level at 0.1 uM pretreated with MAPK inhibitor SP600125 for 1 hr followed by compound addition measured after 48 hrs by Western blot analysis (reference value: 0.77); type: functional, cell-based
[7] = Downregulation of CyclinB1 expression in human K562/ADR cells assessed as ratio of CyclinB1 to beta-actin level at 0.1 uM measured after 48 hrs by Western blot analysis (reference value: 0.77); type: functional, cell-based
K562/Adr [8] = assay: Induction of apoptosis in human K562/ADR cells assessed as chromatin condensation at 0.1 uM measured after 24 hrs by Hoechst33342 staining-based inverted fluorescent microscopic analysis; type: functional, cell-based
K562/Adr [9] = assay: Induction of intracellular ROS accumulation in human K562/ADR cells assessed as fluorescence intensity at 0.1 uM measured after 24 hrs by DCFH-DA probe based flow cytometry relative to vehicle-treated control; type: functional
K562/Adr [10] = assay: Induction of apoptosis in human K562/ADR cells assessed as ratio of cleaved caspase-8 to beta-actin level at 0.1 uM pretreated with MAPK inhibitor U0126 for 1 hr followed by compound addition measured after 48 hrs by Western blot analysis (reference value: 0.07); type: functional
[11] = Downregulation of CyclinB1 expression in human K562/ADR cells assessed as ratio of CyclinB1 to beta-actin level at 0.1 uM pretreated with MAPK inhibitor SB203580 for 1 hr followed by compound addition measured after 48 hrs by Western blot analysis (reference value: 0.77); type: functional, cell-based
K562/Adr [12] = assay: Induction of ERK1/2 phosphorylation in human K562/ADR cells assessed as ratio of phosphorylated ERK1/2 to beta-actin level at 0.1 uM measured after 48 hrs by Western blotting (reference value: 0.22); type: cell-based
K562/Adr [13] = assay: Induction of apoptosis in human K562/ADR cells assessed as ratio of cleaved caspase-9 to beta-actin level at 0.1 uM measured after 48 hrs by Western blot analysis (reference value: 0.05); type: functional
K562/Adr [14] = assay: Induction of apoptosis in human K562/ADR cells assessed as ratio of cleaved caspase-3 to beta-actin level at 0.1 uM pretreated with ROS scavenger NAC for 2 hrs followed by compound addition measured after 48 hrs by Western blot analysis (reference value: 0.06); type: functional
K562/Adr [15] = assay: Induction of ERK1/2 phosphorylation in human K562/ADR cells assessed as ratio of phosphorylated ERK1/2 to beta-actin level at 0.1 uM pretreated with MAPK inhibitor SB203580 for 1 hr followed by compound addition after 48 hrs by Western blotting method (reference value: 0.22); type: cell-based
[16] = Antiproliferative activity against human K562/ADR cells measured after 72 hrs by CCK8 assay; type: functional, cell-based
K562/Adr [17] = assay: Induction of apoptosis in human K562/ADR cells assessed as viable cells at 0.1 uM pretreated with MAPK inhibitor SP600125 for 1 hr followed by compound addition after 48 hrs by Annexin V-APC/7-AAD staining based flow cytometry (reference value: 95.31%); type: functional; settings: read-out: Activity
K562/Adr [18] = assay: Induction of apoptosis in human K562/ADR cells assessed as necrotic cells at 0.1 uM pretreated with MAPK inhibitor SB203580 for 1 hr followed by compound addition after 48 hrs by Annexin V-APC/7-AAD staining based flow cytometry (reference value: 0.26%); type: functional; design: scale not given: the % may be the effect or the level left
K562/Adr [19] = assay: Induction of apoptosis in human K562/ADR cells assessed as early apoptotic cells at 0.1 uM pretreated with MAPK inhibitor SP600125 for 1 hr followed by compound addition after 48 hrs by Annexin V-APC/7-AAD staining based flow cytometry (reference value: 2.74%); type: functional; design: scale not given: the % may be the effect or the level left
[20] = Downregulation of CDK1 expression in human K562/ADR cells assessed as ratio of CDK1 to beta-actin level at 0.1 uM pretreated with MAPK inhibitor SP600125for 1 hr followed by compound addition measured after 48 hrs by Western blot analysis (reference value: 0.53); type: functional, cell-based
[21] = target: MAP kinase p38 (Homo sapiens) (UniProt O15264+Q15759+Q16539+P53778); assay: Induction of P38 phosphorylation in human K562/ADR cells assessed as ratio of phosphorylated p38 to beta-actin level at 0.1 uM pretreated with MAPK inhibitor SB203580 for 1 hr followed by compound addition after 48 hrs by Western blotting method (reference value: 0.25); type: cell-based
[22] = Potency index, ratio of etoposide IC50 to compound IC50 for antiproliferative activity against human K562/ADR cells; type: functional
K562/Adr [23] = assay: Induction of apoptosis in human K562/ADR cells assessed as late apoptotic cells at 0.1 uM pretreated with MAPK inhibitor U0126 for 1 hr followed by compound addition after 48 hrs by Annexin V-APC/7-AAD staining based flow cytometry (reference value: 1.69%); type: functional; design: scale not given: the % may be the effect or the level left
[24] = Downregulation of CDK1 expression in human K562/ADR cells assessed as ratio of CDK1 to beta-actin level at 0.1 uM measured after 48 hrs by Western blot analysis (reference value: 0.53); type: functional, cell-based
K562/Adr [25] = assay: Induction of apoptosis in human K562/ADR cells assessed as ratio of cleaved caspase-9 to beta-actin level at 0.1 uM pretreated with MAPK inhibitor SB203580 for 1 hr followed by compound addition measured after 48 hrs by Western blot analysis (reference value: 0.05); type: functional
K562/Adr [26] = assay: Induction of ERK1/2 phosphorylation in human K562/ADR cells assessed as ratio of phosphorylated ERK1/2 to beta-actin level at 0.1 uM pretreated with ROS scavenger NAC for 2 hrs followed by compound addition after 48 hrs by Western blotting method (reference value: 0.22); type: cell-based
K562/Adr [27] = assay: Induction of apoptosis in human K562/ADR cells assessed as late apoptotic cells at 0.1 uM after 48 hrs by Annexin V-APC/7-AAD staining based flow cytometry (reference value: 1.69%); type: functional

COc1cc([C@@H]2c3cc4c(cc3[C@H](OC(=O)c3ccco3)[C@H]3COC(=O)[C@H]23)OCO4)cc(OC)c1OC
Ratio [1]: 0.83
Ratio [2]: 0.3
Ratio [3]: 0.14
viability at 0.1 µM (K562/Adr [4]): 56.5%
Activity (K562/Adr [5]): Active
Ratio [6]: 0.25
Ratio [7]: 0.19
Activity (K562/Adr [8]): Active
fold change (FC) (K562/Adr [9]): 2.396
Ratio (K562/Adr [10]): 0.42
Ratio [11]: 0.26
Ratio (K562/Adr [12]): 0.33
Ratio (K562/Adr [13]): 0.69
Ratio (K562/Adr [14]): 0.2
Ratio (K562/Adr [15]): 0.15
IC50 [16]: 32 nM
viability at 0.1 µM (K562/Adr [17]): 58.5%
Activity (K562/Adr [18]): 2.86%
Activity (K562/Adr [19]): 7.8%
Ratio [20]: 0.19
Ratio [21]: 0.02
Ratio IC50 [22]: 69.093
Activity (K562/Adr [23]): 31.44%
Ratio [24]: 0.17
Ratio (K562/Adr [25]): 0.44
Ratio (K562/Adr [26]): 0.22
Activity (K562/Adr [27]): 40.45%
